Measurements from patent US6514957B1, “Method of alleviating the violence and stimulating the appetite of stag in the puberty age of the fall and method of promoting the growth of stag's horn” (priority 2001, dated 2003).
“And” between values parts separate entries of the source, which are not always exact repeats. Equal entries are not always repeated. “Also recorded” adds a separate entry of the source.

Tests used:
[1] = test system: stags of elk of which the first horn was cut in the summer; experiment: Promoting the growth of the second stag's horn after cutting the first horn; format: in vivo; conditions: for Growth and development progress of the second stag's horn: 500 mg (1 mg/kg) injected Oct. 2, 1999 or Oct. 2, 2000
Experimental: To 4 stags of elk, of which the first horn coming up in the spring and growing cut in the summer, each in the weight of 500 kg, 17β-decanoate-4-estrene-3-one 500 mg (effective dose corresponding to 1 mg per 1 kg of the weight of stag: “ANABOLIN FORTE” is the trademark manufactured by Alfasan in Nederland and containing 17β-decanoate-4-estrene-3-one 50 mg in a injection product 1 ml; “ANABOLIN FORTE 10 ml” is the trademark imported by BUM-HAN PHARM. in Korea) was injected-injected.
To 8 stags of elk, each in the weight of 500 kg, of which the first horn coming up in the spring and grown up cuts in the summer, 17β-decanoate-4-estrene-3-one 50 mg, 100 mg, 250 mg, 500 mg, 750 mg, 1,000 mg, 2,500 mg and 5,000 mg (effective doses corresponding to 0.1 mg, 0.2 mg, 0.5 mg, 1.0 mg, 1.5 mg, 2.0 mg, 5.0 mg and 10 mg per 1 kg of the weight of stag: “ANABOLIN FORTE” is the trademark manufactured by Alfasan in Nederland and containing 17β-decanoate-4-estrene-3-one 50 mg in a injection product 1 ml; “ANABOLIN FORTE 1 ml, 2 ml, 5 ml, 10 ml, 15 ml, 20 ml, 50 ml and 100 ml” is the trademark imported by BUM-HAN PHARM. in Korea) were injected-injected.
Example 8 was the same as Example 3, except that Example 8 substituted 17β-cyclohexylpropionate-4-estrene-3-one for 17β-decanoate-4-estrene-3-one.
Example 9 was the same as Example 5, except that Example 9 substituted 17β-cyclohexylpropionate-4-estrene-3-one for 17β-decanoate-4-estrene-3-one.
Example 11 was the same as Example 3, except that Example 9 substituted a compound of 17β-decanoate-4-estrene-3-one and 17β-cyclohexylpropionate-4-estrene-3-one for 17β-decanoate-4-estrene-3-one.

[2] = test system: stags of elk, violent and anorexia in the puberty age of the fall; experiment: Alleviating the violence and stimulating the appetite of stags in the puberty age of the fall; format: in vivo
Experimental: To 4 stags of elk, each in the weight of 500 kg, which is violent and anorexia in the puberty age of the fall, 17β-decanoate-4-estrene-3-one 500 mg (effective dose corresponding to 1 mg per 1 kg of the weight of stag: “ANABOLIN FORTE” is the trademark manufactured by Alfasan in Nederland and containing 17β-decanoate-4-estrene-3-one 50 mg in a injection product 1 ml; “ANABOLIN FORTE 10 ml” is the trademark imported by BUM-HAN PHARM. in Korea) was intramuscularly-injected.
To 8 stags of elk, each in the weight of 500 kg, which is violent and anorexia in the puberty age of the fall, 17β-decanoate-4-estrene-3-one 50 mg, 100 mg, 250 mg, 500 mg, 750 mg, 1,000 mg, 2,500 mg and 5,000 mg (effective doses corresponding to 0.1 mg, 0.2 mg, 0.5 mg, 1.0 mg, 1.5 mg, 2.0 mg, 5.0 mg and 10 mg per 1 kg of the weight of stag: “ANABOLIN FORTE” is the trademark manufactured by Alfasan in Nederland and containing 17β-decanoate-4-estrene-3-one 50 mg in a injection product 1 ml; “ANABOLIN FORTE 1 ml, 2 ml, 5 ml, 10 ml, 15 ml, 20 ml, 50 ml and 100 ml” is the trademark imported by BUM-HAN PHARM. in Korea) were injected-injected.
Example 6 was the same as Example 1, except that Example 6 substituted 17β-cyclohexylpropionate-4-estrene-3-one for 17β-decanoate-4-estrene-3-one.
Example 7 was the same as Example 2, except that Example 7 substituted 17β-cyclohexylpropionate-4-estrene-3-one for 17β-decanoate-4-estrene-3-one.
Example 10 was the same as Example 2, except that Example 9 substituted a compound of 17β-decanoate-4-estrene-3-one and 17β-cyclohexylpropionate-4-estrene-3-one for 17β-decanoate-4-estrene-3-one.

[3] = Elk 5, 500 kg, dose 50 mg (0.1 mg/kg) injected
[4] = Elk 6, 500 kg, dose 100 mg (0.2 mg/kg) injected
[5] = Elk 7, 500 kg, dose 250 mg (0.5 mg/kg) injected
[6] = Elk 8, 500 kg, dose 500 mg (1.0 mg/kg) injected
[7] = Elk 9, 500 kg, dose 750 mg (1.5 mg/kg) injected
[8] = Elk 10, 500 kg, dose 1,000 mg (2.0 mg/kg) injected
[9] = Elk 11, 500 kg, dose 2,500 mg (5.0 mg/kg) injected
[10] = Elk 12, 500 kg, dose 5,000 mg (10 mg/kg) injected
[11] = elk stags 500 kg, doses 0.1, 0.2, 0.5, 1.0, 1.5, 2.0, 5.0 and 10 mg per kg

## C[C@]12CC[C@H]3[C@@H](CCC4=CC(=O)CC[C@@H]43)[C@@H]1CC[C@@H]2OC(=O)CCC1CCCCC1 [17β-cyclohexylpropionate-4-estrene-3-one]
[1]; conducted as Example 3: 500 mg (1 mg/kg), elk stags 500 kg
  test results (growth and production amount of the second stag's horn) compared with 17β-decanoate-4-estrene-3-one: the same as those of Example 3
[1]; conducted as Example 5: 50 to 5,000 mg (0.1 to 10 mg/kg), elk stags 500 kg
  test results (production amount of the second stag's horn by dose) compared with 17β-decanoate-4-estrene-3-one: the same as those of Example 5
[2]; conducted as Example 1: 500 mg (1 mg/kg) intramuscular, elk stags 500 kg
  test results (violence, appetite) compared with 17β-decanoate-4-estrene-3-one: the same as those of Example 1
[2]; conducted as Example 2: 50 to 5,000 mg (0.1 to 10 mg/kg), elk stags 500 kg
  test results (violence, appetite) compared with 17β-decanoate-4-estrene-3-one: the same as those of Example 2

## CCCCCCCCCC(=O)O[C@H]1CC[C@H]2[C@@H]3CCC4=CC(=O)CC[C@@H]4[C@H]3CC[C@]12C [17β-decanoate-4-estrene-3-one]
[1]; 0 days after administration, individual Elk 21, 22 (500 kg)
  Growth and development progress of the second stag's horn: 0 cm
[1]; 1 mg/kg injected, elk 500 kg
  production amount of the second stag's horn relative to that of the first stag's horn: about 80%
[1]; 1 mg/kg intramuscularly injected, elk 500 kg
  time from administration until the second stag's horn comes up: 30 days
[1]; 1 mg/kg intramuscularly injected, elk 500 kg, after the horn came up
  growth rate of the second stag's horn: 3 cm per a day
[1]; 500 mg (1 mg/kg) injected 1999.10.2 or 2000.10.2, individual Elk 21, 22 (500 kg)
  Production amount of stag's horn: the second horn collected in the next spring: 12 kg (2×) and 9.6 kg (2×)
[1]; 10 days after administration, individual Elk 21, 22 (500 kg)
  Growth and development progress of the second stag's horn: 0 cm
[1]; 20 days after administration, individual Elk 21, 22 (500 kg)
  Growth and development progress of the second stag's horn: 0 cm
[1]; 30 days after administration, individual Elk 21, 22 (500 kg)
  Growth and development progress of the second stag's horn: 0.5 cm
[1]; 40 days after administration, individual Elk 21, 22 (500 kg)
  Growth and development progress of the second stag's horn: approximately 30 cm and 30 cm
[1]; 50 days after administration, individual Elk 21, 22 (500 kg)
  Growth and development progress of the second stag's horn: 40 cm
[1]; 60 days after administration, individual Elk 21, 22 (500 kg)
  Growth and development progress of the second stag's horn: 60 cm
[1]; 70 days after administration, individual Elk 21, 22 (500 kg)
  Growth and development progress of the second stag's horn: 80 cm
[1]; 80 days after administration, individual Elk 21, 22 (500 kg)
  Growth and development progress of the second stag's horn: 90 cm and 100 cm (3×)
[1]; 90 days after administration, individual Elk 21, 22 (500 kg)
  Growth and development progress of the second stag's horn: 100 cm and 110 cm (2×) and 120 cm
[1]; 100 days after administration, individual Elk 21, 22 (500 kg)
  Growth and development progress of the second stag's horn: 100 cm and 110 cm (2×) and 120 cm
[1]; Elk 31, 500 kg, dose 50 mg (0.1 mg/kg), first horn 15 kg
  Production amount of stag's horn: the second horn collected in the next spring: 5 kg
[1]; Elk 32, 500 kg, dose 100 mg (0.2 mg/kg), first horn 15 kg
  Production amount of stag's horn: the second horn collected in the next spring: 5 kg
[1]; Elk 33, 500 kg, dose 250 mg (0.5 mg/kg), first horn 15 kg
  Production amount of stag's horn: the second horn collected in the next spring: 12 kg
[1]; Elk 34, 500 kg, dose 500 mg (1.0 mg/kg), first horn 15 kg
  Production amount of stag's horn: the second horn collected in the next spring: 12 kg
[1]; Elk 35, 500 kg, dose 750 mg (1.5 mg/kg), first horn 15 kg
  Production amount of stag's horn: the second horn collected in the next spring: 12 kg
[1]; Elk 36, 500 kg, dose 1,000 mg (2.0 mg/kg), first horn 15 kg
  Production amount of stag's horn: the second horn collected in the next spring: 12 kg
[1]; Elk 37, 500 kg, dose 2,500 mg (5.0 mg/kg), first horn 15 kg
  Production amount of stag's horn: the second horn collected in the next spring: 5 kg
[1]; Elk 38, 500 kg, dose 5,000 mg (10 mg/kg), first horn 15 kg
  Production amount of stag's horn: the second horn collected in the next spring: 5 kg
[1]; elk 500 kg, doses 0.1, 0.2, 0.5, 1.0, 1.5, 2.0, 5.0 and 10 mg per kg
  growth of stag's horn: promoted
[2]; [3]
  Status After: appetite: Stimulating appetite
  Status After: violence: Alleviating violence
[2]; [4]
  Status After: appetite: Stimulating appetite
  Status After: violence: Alleviating violence
[2]; [5]
  Status After: appetite: Stimulating appetite
  Status After: violence: Alleviating violence
[2]; [6]
  Status After: appetite: Stimulating appetite
  Status After: violence: Alleviating violence
[2]; [7]
  Status After: appetite: Stimulating appetite
  Status After: violence: Alleviating violence
[2]; [8]
  Status After: appetite: Stimulating appetite
  Status After: violence: Alleviating violence
[2]; [9]
  Status After: appetite: Stimulating appetite
  Status After: violence: Alleviating violence
[2]; [10]
  Status After: appetite: Stimulating appetite
  Status After: violence: Alleviating violence
[2]; elk stags 500 kg, anorexia before, 500 mg (1 mg/kg) intramuscularly injected 2000.10.2, individual Elk 1-4
  Status After: appetite: stimulated in appetite; also recorded: Stimulating appetite
[2]; elk stags 500 kg, violent before, 500 mg (1 mg/kg) intramuscularly injected 2000.10.2, individual Elk 1-4
  Status After: violence: less violent; also recorded: Alleviating violence
[2]; elk stags 500 kg, 1.0 mg/kg intramuscularly injected
  intake of feed: increasing the intake of feed
[2]; [11]
  appetite after injection: stimulated in appetite
  intake of feed: increasing the intake of feed
  violence after injection: less violent
